Results reported in the NIST ThermoML archive (doi:10.1016/j.jct.2019.105881).

Test: wn = mass fraction of the nth substance listed
Settings: 100 kPa, Liquid, transient hot wire

CCCCCCCCCCCC(=O)OC [methyl dodecanoate] + CCCO
Settings | thermal conductivity [W/m/K]
287.68 K, w1 = 0.6993 | 0.1497
287.9 K, w1 = 0.298 | 0.1522
287.91 K, w1 = 0.1 | 0.1542
288 K, w1 = 0.4998 | 0.1509
288.06 K, w1 = 0.8996 | 0.1484
297.73 K, w1 = 0.6993 | 0.1473
297.79 K, w1 = 0.1 | 0.1517
297.85 K, w1 = 0.4998 | 0.1484
297.85 K, w1 = 0.8996 | 0.1467
297.93 K, w1 = 0.298 | 0.1494
307.66 K, w1 = 0.1 | 0.1492
307.76 K, w1 = 0.4998 | 0.1457
307.83 K, w1 = 0.298 | 0.1474
307.89 K, w1 = 0.8996 | 0.1445
308.03 K, w1 = 0.6993 | 0.1452
317.53 K, w1 = 0.298 | 0.1451
317.62 K, w1 = 0.1 | 0.1474
317.67 K, w1 = 0.4998 | 0.1436
317.86 K, w1 = 0.6993 | 0.1429
318.02 K, w1 = 0.8996 | 0.1422
327.34 K, w1 = 0.298 | 0.1424
327.67 K, w1 = 0.1 | 0.1446
327.67 K, w1 = 0.4998 | 0.1412
327.68 K, w1 = 0.8996 | 0.1398
328.03 K, w1 = 0.6993 | 0.1405
337.22 K, w1 = 0.1 | 0.1423
337.4 K, w1 = 0.298 | 0.14
337.64 K, w1 = 0.4998 | 0.1391
337.82 K, w1 = 0.6993 | 0.1384
337.85 K, w1 = 0.8996 | 0.1377
347.19 K, w1 = 0.1 | 0.139
347.24 K, w1 = 0.298 | 0.1374
347.52 K, w1 = 0.4998 | 0.1368
347.82 K, w1 = 0.6993 | 0.1362
347.93 K, w1 = 0.8996 | 0.135
357.25 K, w1 = 0.1 | 0.1365
357.44 K, w1 = 0.298 | 0.1351
357.79 K, w1 = 0.4998 | 0.1344
357.91 K, w1 = 0.6993 | 0.1337
357.93 K, w1 = 0.8996 | 0.1326

CCCCCCCCCCCC(=O)OC [methyl dodecanoate] + CCCCCO
Settings | thermal conductivity [W/m/K]
287.79 K, w1 = 0.6756 | 0.1488
287.86 K, w1 = 0.2997 | 0.1497
287.92 K, w1 = 0.5029 | 0.1493
288 K, w1 = 0.1021 | 0.1503
288.01 K, w1 = 0.8983 | 0.1482
297.82 K, w1 = 0.1021 | 0.1486
297.86 K, w1 = 0.5029 | 0.1475
297.95 K, w1 = 0.6756 | 0.1469
298.07 K, w1 = 0.2997 | 0.148
298.1 K, w1 = 0.8983 | 0.1456
307.72 K, w1 = 0.1021 | 0.1468
307.78 K, w1 = 0.6756 | 0.145
307.8 K, w1 = 0.5029 | 0.1453
307.84 K, w1 = 0.2997 | 0.1455
307.9 K, w1 = 0.8983 | 0.1441
317.72 K, w1 = 0.1021 | 0.1441
317.72 K, w1 = 0.2997 | 0.1435
317.8 K, w1 = 0.6756 | 0.1424
317.85 K, w1 = 0.5029 | 0.1429
317.85 K, w1 = 0.8983 | 0.1419
327.58 K, w1 = 0.1021 | 0.1422
327.68 K, w1 = 0.2997 | 0.1412
327.7 K, w1 = 0.6756 | 0.1407
327.72 K, w1 = 0.5029 | 0.141
327.87 K, w1 = 0.8983 | 0.1397
337.42 K, w1 = 0.1021 | 0.1399
337.53 K, w1 = 0.2997 | 0.139
337.67 K, w1 = 0.5029 | 0.1389
337.76 K, w1 = 0.6756 | 0.1385
337.85 K, w1 = 0.8983 | 0.1373
347.5 K, w1 = 0.2997 | 0.137
347.65 K, w1 = 0.1021 | 0.138
347.66 K, w1 = 0.5029 | 0.1368
347.7 K, w1 = 0.8983 | 0.1352
347.78 K, w1 = 0.6756 | 0.1356
357.16 K, w1 = 0.1021 | 0.1364
357.47 K, w1 = 0.2997 | 0.135
357.65 K, w1 = 0.5029 | 0.1348
357.73 K, w1 = 0.6756 | 0.1335
357.79 K, w1 = 0.8983 | 0.1332

CCCCCCCCCCCC(=O)OC [methyl dodecanoate] + CCCCO
Settings | thermal conductivity [W/m/K]
287.91 K, w1 = 0.3009 | 0.1499
287.94 K, w1 = 0.1013 | 0.1515
287.95 K, w1 = 0.5027 | 0.1492
288.07 K, w1 = 0.6997 | 0.1488
288.14 K, w1 = 0.8996 | 0.1485
297.76 K, w1 = 0.1013 | 0.1489
297.9 K, w1 = 0.6997 | 0.1469
297.92 K, w1 = 0.5027 | 0.1471
297.95 K, w1 = 0.3009 | 0.1475
298.02 K, w1 = 0.8996 | 0.1463
307.79 K, w1 = 0.1013 | 0.1465
307.81 K, w1 = 0.3009 | 0.1457
307.83 K, w1 = 0.5027 | 0.1452
307.96 K, w1 = 0.8996 | 0.1441
307.99 K, w1 = 0.6997 | 0.1445
317.67 K, w1 = 0.3009 | 0.1434
317.75 K, w1 = 0.1013 | 0.144
317.8 K, w1 = 0.5027 | 0.1426
317.83 K, w1 = 0.8996 | 0.1422
317.88 K, w1 = 0.6997 | 0.1424
327.6 K, w1 = 0.1013 | 0.1419
327.69 K, w1 = 0.3009 | 0.1411
327.94 K, w1 = 0.5027 | 0.14
327.94 K, w1 = 0.6997 | 0.1398
328.11 K, w1 = 0.8996 | 0.139
337.45 K, w1 = 0.3009 | 0.1386
337.47 K, w1 = 0.1013 | 0.1395
337.93 K, w1 = 0.5027 | 0.1378
337.95 K, w1 = 0.8996 | 0.1371
337.96 K, w1 = 0.6997 | 0.1375
347.23 K, w1 = 0.1013 | 0.1368
347.28 K, w1 = 0.3009 | 0.1361
347.67 K, w1 = 0.6997 | 0.1354
347.73 K, w1 = 0.5027 | 0.1358
347.86 K, w1 = 0.8996 | 0.135
357.25 K, w1 = 0.3009 | 0.1333
357.28 K, w1 = 0.1013 | 0.1342
357.71 K, w1 = 0.8996 | 0.1322
357.82 K, w1 = 0.5027 | 0.133
357.87 K, w1 = 0.6997 | 0.1327
